Results: patent US8017792B2, “1-thio-D-glucitol derivatives” (Taisho Pharmaceutical Co., Ltd., priority 2005, dated 2011)

Experiments:
Human SGLT2 = biological target: T1, Human SGLT2 (Homo sapiens, UniProt P31639); assay: Sodium-dependent sugar uptake inhibition test in CHO-K1 cells stably expressing human SGLT2 (Test Example 2); format: cell-based; details: for IC50: CHO-K1 cells, [14C]methyl-α-D-glucopyranoside 1 mM, 37° C., one hour; for SGLT1/SGLT2: ratio of IC50 human SGLT1 to IC50 human SGLT2
T1 construct: expressed in transfected cells; host or cells: CHO-K1
T1 sequence (P31639 1-672): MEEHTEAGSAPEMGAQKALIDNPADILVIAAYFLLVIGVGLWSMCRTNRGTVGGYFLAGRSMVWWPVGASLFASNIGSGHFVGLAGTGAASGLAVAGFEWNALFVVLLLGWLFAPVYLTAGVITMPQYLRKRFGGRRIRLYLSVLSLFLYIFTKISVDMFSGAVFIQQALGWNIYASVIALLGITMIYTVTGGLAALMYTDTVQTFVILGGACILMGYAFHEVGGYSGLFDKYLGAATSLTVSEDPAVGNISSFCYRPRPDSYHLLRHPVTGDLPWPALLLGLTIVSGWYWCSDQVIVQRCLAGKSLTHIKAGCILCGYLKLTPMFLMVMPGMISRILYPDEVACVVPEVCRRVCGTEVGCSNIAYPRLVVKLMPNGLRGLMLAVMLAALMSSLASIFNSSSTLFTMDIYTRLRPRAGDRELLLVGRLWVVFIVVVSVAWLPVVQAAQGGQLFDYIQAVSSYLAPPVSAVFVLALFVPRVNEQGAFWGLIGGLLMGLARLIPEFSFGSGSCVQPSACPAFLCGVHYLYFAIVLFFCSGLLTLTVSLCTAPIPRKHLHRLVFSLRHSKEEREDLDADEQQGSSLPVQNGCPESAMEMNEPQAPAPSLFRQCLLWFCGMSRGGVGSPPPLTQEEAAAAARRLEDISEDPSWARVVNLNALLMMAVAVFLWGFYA
Protocol: (§1) Human SGLT1 sequence (NM_000343) was reverse-transcripted from human small intestinal mRNA, then amplified, and then introduced into pCMV-tag5A from Stratagene Corporation. Human SGLT2 sequence (NM_003041) was prepared from human nephric mRNA as with the above method, and then introduced into pcDNA3.1+hygro from Invitrogen Corporation. Each cloned sequence was confirmed to be identical with the reported sequence.
(§2) CHO-K1 cells were transfected with the human SGLT1 and human SGLT2 expression vectors using Lipofectamine 2000 (Invitrogen Corporation). SGLT expression cells were cultured in the presence of geneticin (SGLT1) or hygromycin B (SGLT2) of the concentration of 500 μg/mL to select resistant strains. Cells were obtained using sugar uptake specific activity as an index in the following system.
(§3) Cells stably expressing human SGLT1 and human SGLT2 were used in the sodium-dependent sugar uptake activity inhibition test. Cells were incubated in 1 mL of a pretreatment buffer solution (140 mM choline chloride, 2 mM KCl, 1 mM CaCl2, 1 mM MgCl2, 10 mM HEPES/5 mM Tris, pH 7.4) for 20 minutes. The pretreatment buffer solution was removed and 200 μL of an uptake buffer containing test compounds (methyl-α-D-glucopyranoside containing [^14C]methyl-α-D-glucopyranoside (0.1 mM for SGLT1 inhibition, 1 mM for SGLT2 inhibition), 140 mM NaCl, 2 mM KCl, 1 mM CaCl2, 1 mM MgCl2, 10 mM HEPES/5 mM Tris, pH 7.4) were added, and uptake reaction was performed at 37° C. for 30 minutes (SGLT1) or for one hour (SGLT2). After the reaction, cells were washed with 1 mL of a washing buffer (10 mM methyl-α-D-glucopyranoside, 140 mM choline chloride, 2 mM KCl, 1 mM CaCl2, 1 mM MgCl2, 10 mM HEPES/5 mM Tris, pH 7.4) twice and dissolved in 400 μL of 0.2 M NaOH solution. After Aquazole 2 (Perkin Elmer Corporation) was added and mixed well, radioactivity was measured with a liquid scintillation counter (Beckman Coulter Corporation). A buffer for uptake which contained no test compound was prepared as a control group. Another buffer solution for uptake containing choline chloride in place of NaCl was also prepared for basic uptake.

Human SGLT1 = biological target: T2, Human SGLT1 (Homo sapiens, UniProt P13866); assay: Sodium-dependent sugar uptake inhibition test in CHO-K1 cells stably expressing human SGLT1 (Test Example 2); format: cell-based; details: [14C]methyl-α-D-glucopyranoside 0.1 mM, 37° C., 30 minutes
T2 construct: expressed in transfected cells; host or cells: CHO-K1
T2 sequence (P13866 1-664): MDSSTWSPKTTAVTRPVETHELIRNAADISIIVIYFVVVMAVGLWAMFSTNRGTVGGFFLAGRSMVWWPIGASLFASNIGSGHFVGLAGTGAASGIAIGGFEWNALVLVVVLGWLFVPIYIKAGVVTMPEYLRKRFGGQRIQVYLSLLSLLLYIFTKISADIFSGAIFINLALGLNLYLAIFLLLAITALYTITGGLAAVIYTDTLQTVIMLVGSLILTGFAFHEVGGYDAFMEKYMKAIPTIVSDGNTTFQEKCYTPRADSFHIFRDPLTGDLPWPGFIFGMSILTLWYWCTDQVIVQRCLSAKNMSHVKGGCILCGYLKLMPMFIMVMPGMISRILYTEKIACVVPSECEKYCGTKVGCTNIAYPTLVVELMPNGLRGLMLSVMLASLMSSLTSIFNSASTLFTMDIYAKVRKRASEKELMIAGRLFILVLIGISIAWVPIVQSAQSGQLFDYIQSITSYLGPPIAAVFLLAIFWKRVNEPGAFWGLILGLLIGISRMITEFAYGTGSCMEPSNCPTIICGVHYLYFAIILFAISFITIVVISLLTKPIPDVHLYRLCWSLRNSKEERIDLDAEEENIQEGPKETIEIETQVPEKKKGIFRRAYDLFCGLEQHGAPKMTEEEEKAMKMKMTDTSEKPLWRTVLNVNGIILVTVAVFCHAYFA
Protocol: as §1, §2, §3

SMILES	IC50 (Human SGLT2) [µM]	IC50 (Human SGLT1) [µM]	SGLT1/SGLT2 (Human SGLT2)
CCOc1ccc(Cc2cc([C@@H]3S[C@H](CO)[C@@H](O)[C@H](O)[C@H]3O)c(OC)cc2OC)cc1 [Compound 80, (1S)-1,5-Anhydro-1-[4,6-dimethoxy-3-(4-ethoxybenzyl)phenyl]-1-thio-D-glucitol]	0.19	2.9	
OC[C@H]1S[C@@H](c2ccc(Cl)c(Cc3ccc(O)cc3)c2)[C@H](O)[C@@H](O)[C@@H]1O [Compound 94, (1S)-1,5-Anhydro-1-[4-chloro-3-(4-hydroxybenzyl)phenyl]-1-thio-D-glucitol]	0.25	0.3	1.3
CCc1ccc(Cc2cc([C@@H]3S[C@H](CO)[C@@H](O)[C@H](O)[C@H]3O)ccc2Cl)cc1 [Compound 95, (1S)-1,5-Anhydro-1-[4-chloro-3-(4-ethylbenzyl)phenyl]-1-thio-D-glucitol]	0.028		22.3
COc1ccc(Cc2cc([C@@H]3S[C@H](CO)[C@@H](O)[C@H](O)[C@H]3O)ccc2Cl)cc1 [Compound 88, (1S)-1,5-Anhydro-1-[4-chloro-3-(4-methoxybenzyl)phenyl]-1-thio-D-glucitol]	0.08	0.2	2.8
Cc1ccc(Cc2cc([C@@H]3S[C@H](CO)[C@@H](O)[C@H](O)[C@H]3O)ccc2Cl)cc1 [Compound 92, (1S)-1,5-Anhydro-1-[4-chloro-3-(4-methylbenzyl)phenyl]-1-thio-D-glucitol]	0.03	0.2	7.7
CCc1ccc(Cc2cc([C@@H]3S[C@H](CO)[C@@H](O)[C@H](O)[C@H]3O)c(OC)cc2Cl)cc1 [Compound 102, (1S)-1,5-Anhydro-1-[4-chloro-3-(4-ethylbenzyl)-6-methoxyphenyl]-1-thio-D-glucitol]	0.04	3.5	86.6
CC(C)c1ccc(Cc2cc([C@@H]3S[C@H](CO)[C@@H](O)[C@H](O)[C@H]3O)ccc2Cl)cc1 [Compound 96, (1S)-1,5-Anhydro-1-[4-chloro-3-(4-isopropylbenzyl)phenyl]-1-thio-D-glucitol]	0.062	7.3	116.3
CCOc1ccc(Cc2cc([C@@H]3S[C@H](CO)[C@@H](O)[C@H](O)[C@H]3O)ccc2OC)cc1 [Compound 77, (1S)-1,5-Anhydro-1-[3-(4-ethoxybenzyl)-4-methoxyphenyl]-1-thio-D-glucitol]	0.69	8	11.6
CCc1ccc(Cc2cccc([C@@H]3S[C@H](CO)[C@@H](O)[C@H](O)[C@H]3O)c2)cc1 [Compound 74, (1S)-1,5-anhydro-1-[3-(4-ethylbenzyl)phenyl]-1-thio-D-glucitol]	1.19	15.3	12.8
CCc1ccc(Cc2cc([C@@H]3S[C@H](CO)[C@@H](O)[C@H](O)[C@H]3O)c(OC)cc2C)cc1 [Compound 101, (1S)-1,5-Anhydro-1-[3-(4-ethylbenzyl)-6-methoxy-4-methylphenyl]-1-thio-D-glucitol]	0.04	2.6	63.1
CCOc1ccc(Cc2cc([C@@H]3S[C@H](CO)[C@@H](O)[C@H](O)[C@H]3O)c(OC)cc2Cl)cc1 [Compound 99, (1S)-1,5-anhydro-1-[4-chloro-5-(4-ethoxybenzyl)-2-methoxyphenyl]-1-thio-D-glucitol]	0.032	5.6	178.6
CCOc1ccc(Cc2cc([C@@H]3S[C@H](CO)[C@@H](O)[C@H](O)[C@H]3O)ccc2O)cc1 [Compound 82, (1S)-1,5-Anhydro-1-[3-(4-ethoxybenzyl)-4-hydroxyphenyl]-1-thio-D-glucitol]	3.78	15	4.0
CCOc1ccc(Cc2cc([C@@H]3S[C@H](CO)[C@@H](O)[C@H](O)[C@H]3O)c(OC)cc2C)cc1 [Compound 89, (1S)-1,5-anhydro-1-[3-(4-ethoxybenzyl)-6-methoxy-4-methylphenyl]-1-thio-D-glucitol]	0.065	6.3	97.5
CCOc1ccc(Cc2ccc(OC)c([C@@H]3S[C@H](CO)[C@@H](O)[C@H](O)[C@H]3O)c2)cc1 [Compound 78, (1S)-1,5-Anhydro-1-[3-(4-ethoxybenzyl)-6-methoxy-phenyl]-1-thio-D-glucitol]	1.04	120	115.4

Second part, the compound after the results:

IC50 (Human SGLT2) [µM]	IC50 (Human SGLT1) [µM]	SGLT1/SGLT2 (Human SGLT2)	SMILES
33			CCOc1ccc(Cc2cncc([C@@H]3S[C@H](CO)[C@@H](O)[C@H](O)[C@H]3O)c2)cc1 [Compound 138, (1S)-1,5-anhydro-1-[5-(4-ethoxybenzyl)pyridin-3-yl]-1-thio-D-glucitol]
0.093	17	182.5	COc1cc(C)c(Cc2ccc(C(C)C)cc2)cc1[C@@H]1S[C@H](CO)[C@@H](O)[C@H](O)[C@H]1O [Compound 105, (1S)-1,5-Anhydro-1-[3-(4-isopropylbenzyl)-6-methoxy-4-methylphenyl]-1-thio-D-glucitol]
2.91			OC[C@H]1S[C@@H](c2cccc(Cc3ccc(-c4ccccc4)s3)c2)[C@H](O)[C@@H](O)[C@@H]1O [Compound 134]
0.89	4.1	4.7	COc1cc(OC)c([C@@H]2S[C@H](CO)[C@@H](O)[C@H](O)[C@H]2O)cc1Cc1cc2ccccc2s1 [Compound 131, (1S)-1,5-Anhydro-1-[3-[(1-benzothien-2-yl)methyl]-4,6-dimethoxyphenyl]-1-thio-D-glucitol]
0.034	1	29.8	COc1cc(C)c(Cc2ccc(C)cc2)cc1[C@@H]1S[C@H](CO)[C@@H](O)[C@H](O)[C@H]1O [Compound 104, (1S)-1,5-Anhydro-1-[3-(4-methylbenzyl)-6-methoxy-4-methylphenyl]-1-thio-D-glucitol]
0.497	4.4	8.9	OC[C@H]1S[C@@H](c2ccc(Cl)c(Cc3cc4ccccc4o3)c2)[C@H](O)[C@@H](O)[C@@H]1O [Compound 132, (1S)-1,5-Anhydro-1-[3-[(1-benzofuran-2-yl)methyl]-4-chlorophenyl]-1-thio-D-glucitol]
114			CCc1ccc(Cc2ccc([C@@H]3S[C@H](CO)[C@@H](O)[C@H](O)[C@H]3O)s2)cc1 [Compound 139, (1S)-1,5-anhydro-1-[5-(4-ethylbenzyl)thiophen-2-yl]-1-thio-D-glucitol]
